Reference: ChEMBL document CHEMBL5465560, “Selectivity Literature for EUbOPEN Chemogenomic Library” (2024)
Blank lines part the entries; values can stand above or below the molecule they belong to.

Assays:
[1] = target: T1, Serine/threonine-protein kinase greatwall (Homo sapiens) (UniProt Q96GX5); test: Selectivity interaction (LanthaScreen Eu Kinase Binding Assay) EUB0001632a MASTL; conditions: at 10 µM
T1 sequence (whole entry): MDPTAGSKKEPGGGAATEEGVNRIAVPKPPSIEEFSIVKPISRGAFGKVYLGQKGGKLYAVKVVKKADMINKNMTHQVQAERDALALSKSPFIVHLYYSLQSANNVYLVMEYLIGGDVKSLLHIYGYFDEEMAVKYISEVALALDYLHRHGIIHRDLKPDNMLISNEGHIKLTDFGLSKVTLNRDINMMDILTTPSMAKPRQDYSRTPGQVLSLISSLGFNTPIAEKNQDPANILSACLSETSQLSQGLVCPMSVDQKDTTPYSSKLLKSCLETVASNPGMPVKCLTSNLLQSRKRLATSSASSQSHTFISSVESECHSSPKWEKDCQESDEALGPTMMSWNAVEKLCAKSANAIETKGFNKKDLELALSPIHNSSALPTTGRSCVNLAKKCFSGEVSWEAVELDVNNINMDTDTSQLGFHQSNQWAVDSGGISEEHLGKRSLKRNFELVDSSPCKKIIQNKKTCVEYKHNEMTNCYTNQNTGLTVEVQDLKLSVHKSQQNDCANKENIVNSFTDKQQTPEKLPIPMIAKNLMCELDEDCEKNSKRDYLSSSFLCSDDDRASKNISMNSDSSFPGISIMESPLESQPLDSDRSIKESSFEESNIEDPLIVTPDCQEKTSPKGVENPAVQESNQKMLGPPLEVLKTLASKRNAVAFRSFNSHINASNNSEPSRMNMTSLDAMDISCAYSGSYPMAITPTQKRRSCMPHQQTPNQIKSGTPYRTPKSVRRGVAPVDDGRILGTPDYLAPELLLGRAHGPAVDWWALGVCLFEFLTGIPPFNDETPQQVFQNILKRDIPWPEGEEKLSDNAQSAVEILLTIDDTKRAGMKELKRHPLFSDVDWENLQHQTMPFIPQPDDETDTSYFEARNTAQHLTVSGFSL

[2] = target: D(4) dopamine receptor (Homo sapiens) (UniProt P21917); test: Selectivity interaction (Eurofins CEREP Diversity Profile (receptors and ion channels)) EUB0000279b DRD4; conditions: at 10 µM
Chain of D(4) dopamine receptor (Homo sapiens) (P21917 whole entry): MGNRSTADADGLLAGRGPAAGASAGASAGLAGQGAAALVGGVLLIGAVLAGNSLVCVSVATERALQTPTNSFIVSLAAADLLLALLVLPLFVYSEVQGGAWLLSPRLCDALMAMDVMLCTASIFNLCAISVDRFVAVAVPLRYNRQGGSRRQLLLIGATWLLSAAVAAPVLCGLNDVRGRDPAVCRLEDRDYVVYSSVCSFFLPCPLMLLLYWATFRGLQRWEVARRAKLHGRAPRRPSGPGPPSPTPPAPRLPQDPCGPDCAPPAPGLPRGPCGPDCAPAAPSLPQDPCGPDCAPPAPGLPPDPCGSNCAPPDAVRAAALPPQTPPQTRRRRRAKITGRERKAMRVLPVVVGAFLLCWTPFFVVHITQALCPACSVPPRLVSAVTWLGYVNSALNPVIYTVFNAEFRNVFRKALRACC

[3] = target: SRSF protein kinase 3 (Homo sapiens) (UniProt Q9UPE1); test: Selectivity interaction (KinomeScan (DiscoverX)) EUB0000666a SRPK3; conditions: at 10 µM
[4] = target: Serine/threonine-protein kinase SIK3 (Homo sapiens) (UniProt Q9Y2K2); test: Selectivity interaction (KinomeScan (DiscoverX)) EUB0000666a SIK3; conditions: at 10 µM
Misshapen-like kinase 1 = Misshapen-like kinase 1 (Homo sapiens, UniProt Q8N4C8); test: Selectivity interaction (ActivX KiNativ screen (kinase selectivity in THP-1 cell lysates)) EUB0000639a MINK1; type: subcellular; conditions: lysate
Chain of Misshapen-like kinase 1 (Q8N4C8 whole entry, looked up): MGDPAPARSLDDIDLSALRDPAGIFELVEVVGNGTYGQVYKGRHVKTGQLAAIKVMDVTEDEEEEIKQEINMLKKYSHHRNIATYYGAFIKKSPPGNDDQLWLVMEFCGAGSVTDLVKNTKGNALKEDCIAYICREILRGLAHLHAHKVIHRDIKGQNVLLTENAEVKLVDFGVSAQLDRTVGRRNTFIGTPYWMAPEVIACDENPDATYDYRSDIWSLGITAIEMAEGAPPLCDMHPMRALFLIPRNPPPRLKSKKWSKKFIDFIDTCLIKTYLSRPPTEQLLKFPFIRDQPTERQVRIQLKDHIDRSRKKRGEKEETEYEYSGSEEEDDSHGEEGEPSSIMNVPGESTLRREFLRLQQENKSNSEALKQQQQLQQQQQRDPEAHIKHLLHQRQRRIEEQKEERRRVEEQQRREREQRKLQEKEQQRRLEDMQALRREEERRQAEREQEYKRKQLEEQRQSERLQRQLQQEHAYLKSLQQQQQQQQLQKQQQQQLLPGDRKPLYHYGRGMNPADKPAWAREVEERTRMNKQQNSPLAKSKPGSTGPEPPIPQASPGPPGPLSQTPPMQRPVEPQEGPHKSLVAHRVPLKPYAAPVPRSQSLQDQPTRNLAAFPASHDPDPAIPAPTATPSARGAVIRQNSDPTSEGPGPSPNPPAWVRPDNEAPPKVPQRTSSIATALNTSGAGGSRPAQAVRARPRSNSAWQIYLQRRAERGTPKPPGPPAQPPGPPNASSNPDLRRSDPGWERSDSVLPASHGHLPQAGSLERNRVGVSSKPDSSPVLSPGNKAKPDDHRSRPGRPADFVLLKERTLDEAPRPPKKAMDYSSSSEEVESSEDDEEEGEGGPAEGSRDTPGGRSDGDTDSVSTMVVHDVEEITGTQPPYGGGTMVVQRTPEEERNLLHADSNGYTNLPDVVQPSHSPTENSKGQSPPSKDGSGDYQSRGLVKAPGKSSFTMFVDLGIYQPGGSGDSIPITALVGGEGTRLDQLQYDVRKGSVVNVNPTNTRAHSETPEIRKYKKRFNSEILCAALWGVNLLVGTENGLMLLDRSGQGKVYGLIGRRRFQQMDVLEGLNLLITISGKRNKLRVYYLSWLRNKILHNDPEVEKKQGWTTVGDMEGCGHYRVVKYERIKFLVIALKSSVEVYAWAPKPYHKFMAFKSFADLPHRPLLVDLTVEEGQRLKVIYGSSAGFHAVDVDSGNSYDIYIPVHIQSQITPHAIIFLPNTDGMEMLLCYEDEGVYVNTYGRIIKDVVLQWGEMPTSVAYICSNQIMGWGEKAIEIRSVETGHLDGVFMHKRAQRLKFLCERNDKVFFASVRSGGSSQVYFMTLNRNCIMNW

[5] = target: Serine/threonine-protein kinase ATR (Homo sapiens) (UniProt Q13535); test: Selectivity interaction (ActivX KiNativ screen (kinase selectivity in THP-1 cell lysates)) EUB0000639a ATR; type: subcellular; conditions: lysate
Chain of Serine/threonine-protein kinase ATR (Homo sapiens) (Q13535 whole entry, looked up): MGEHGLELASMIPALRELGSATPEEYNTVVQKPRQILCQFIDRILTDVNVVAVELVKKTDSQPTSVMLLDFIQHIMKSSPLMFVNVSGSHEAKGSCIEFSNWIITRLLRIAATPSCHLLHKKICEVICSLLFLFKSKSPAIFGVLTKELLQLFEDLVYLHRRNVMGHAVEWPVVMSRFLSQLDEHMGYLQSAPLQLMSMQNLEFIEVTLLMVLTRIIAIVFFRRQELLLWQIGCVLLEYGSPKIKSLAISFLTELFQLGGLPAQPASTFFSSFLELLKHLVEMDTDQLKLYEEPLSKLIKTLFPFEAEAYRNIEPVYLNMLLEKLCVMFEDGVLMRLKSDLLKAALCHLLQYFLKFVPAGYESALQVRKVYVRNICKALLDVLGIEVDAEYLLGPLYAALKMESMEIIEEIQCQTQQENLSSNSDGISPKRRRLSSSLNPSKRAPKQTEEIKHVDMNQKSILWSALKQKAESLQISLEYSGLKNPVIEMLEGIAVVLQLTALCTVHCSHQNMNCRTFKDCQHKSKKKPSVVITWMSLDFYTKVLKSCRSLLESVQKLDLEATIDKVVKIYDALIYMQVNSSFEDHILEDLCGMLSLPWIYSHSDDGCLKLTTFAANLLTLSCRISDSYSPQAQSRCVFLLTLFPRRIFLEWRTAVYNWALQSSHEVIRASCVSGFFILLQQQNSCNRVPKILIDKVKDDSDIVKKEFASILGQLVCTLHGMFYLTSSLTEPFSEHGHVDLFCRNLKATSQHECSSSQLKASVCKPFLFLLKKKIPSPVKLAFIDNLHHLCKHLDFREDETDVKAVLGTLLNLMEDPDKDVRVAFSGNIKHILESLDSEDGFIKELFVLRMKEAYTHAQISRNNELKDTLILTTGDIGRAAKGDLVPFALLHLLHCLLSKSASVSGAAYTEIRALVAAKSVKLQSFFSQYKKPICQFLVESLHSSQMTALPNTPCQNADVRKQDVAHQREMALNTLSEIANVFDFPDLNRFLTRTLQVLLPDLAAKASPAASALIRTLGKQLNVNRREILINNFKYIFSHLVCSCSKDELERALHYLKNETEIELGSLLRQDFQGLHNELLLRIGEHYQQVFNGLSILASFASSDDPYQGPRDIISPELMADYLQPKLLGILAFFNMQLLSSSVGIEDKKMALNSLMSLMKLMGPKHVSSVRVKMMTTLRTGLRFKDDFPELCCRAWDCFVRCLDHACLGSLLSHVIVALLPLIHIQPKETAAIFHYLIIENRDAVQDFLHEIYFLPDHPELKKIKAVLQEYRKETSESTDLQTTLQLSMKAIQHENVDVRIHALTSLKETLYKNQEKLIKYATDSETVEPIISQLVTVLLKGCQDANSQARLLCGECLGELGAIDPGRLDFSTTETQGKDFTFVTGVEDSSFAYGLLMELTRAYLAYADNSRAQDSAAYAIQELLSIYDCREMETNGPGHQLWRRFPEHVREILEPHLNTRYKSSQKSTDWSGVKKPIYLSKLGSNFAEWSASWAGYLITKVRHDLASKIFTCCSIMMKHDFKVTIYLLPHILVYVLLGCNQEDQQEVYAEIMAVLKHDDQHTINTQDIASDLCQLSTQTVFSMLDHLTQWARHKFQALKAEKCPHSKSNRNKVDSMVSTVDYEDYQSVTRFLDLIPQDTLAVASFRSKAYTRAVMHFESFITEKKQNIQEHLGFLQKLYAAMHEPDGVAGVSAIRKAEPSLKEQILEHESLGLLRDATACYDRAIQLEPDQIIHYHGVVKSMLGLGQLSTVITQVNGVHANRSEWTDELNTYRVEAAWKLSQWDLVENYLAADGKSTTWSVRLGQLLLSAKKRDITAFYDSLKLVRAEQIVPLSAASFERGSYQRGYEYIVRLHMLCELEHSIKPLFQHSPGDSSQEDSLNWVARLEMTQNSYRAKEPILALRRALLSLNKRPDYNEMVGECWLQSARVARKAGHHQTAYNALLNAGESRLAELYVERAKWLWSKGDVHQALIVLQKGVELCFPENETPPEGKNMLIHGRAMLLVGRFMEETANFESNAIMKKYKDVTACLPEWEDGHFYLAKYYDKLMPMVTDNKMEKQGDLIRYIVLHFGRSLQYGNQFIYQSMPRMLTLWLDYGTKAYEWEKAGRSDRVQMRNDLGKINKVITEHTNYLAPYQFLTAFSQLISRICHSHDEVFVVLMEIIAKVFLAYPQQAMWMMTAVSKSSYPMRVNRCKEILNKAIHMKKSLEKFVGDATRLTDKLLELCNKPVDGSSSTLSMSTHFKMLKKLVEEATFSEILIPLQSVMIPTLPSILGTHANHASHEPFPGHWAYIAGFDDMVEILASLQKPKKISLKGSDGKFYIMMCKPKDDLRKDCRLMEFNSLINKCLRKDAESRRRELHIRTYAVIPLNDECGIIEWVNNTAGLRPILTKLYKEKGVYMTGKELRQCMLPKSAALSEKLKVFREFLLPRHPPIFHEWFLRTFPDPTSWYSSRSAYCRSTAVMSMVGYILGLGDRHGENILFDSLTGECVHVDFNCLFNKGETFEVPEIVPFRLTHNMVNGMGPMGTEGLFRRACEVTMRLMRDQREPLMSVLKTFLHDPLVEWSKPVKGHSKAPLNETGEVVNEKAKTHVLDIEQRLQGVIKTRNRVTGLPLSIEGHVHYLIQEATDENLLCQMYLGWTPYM

[6] = target: Protein kinase C delta type (Homo sapiens) (UniProt Q05655); test: Selectivity interaction (KinomeScan (DiscoverX)) EUB0000655a PRKCD; conditions: at 10 µM
[7] = target: T2, Dual specificity mitogen-activated protein kinase kinase 3 (Homo sapiens) (UniProt P46734); test: Selectivity interaction (KinomeScan (DiscoverX)) EUB0000045b MAP2K3
T2 sequence (whole entry): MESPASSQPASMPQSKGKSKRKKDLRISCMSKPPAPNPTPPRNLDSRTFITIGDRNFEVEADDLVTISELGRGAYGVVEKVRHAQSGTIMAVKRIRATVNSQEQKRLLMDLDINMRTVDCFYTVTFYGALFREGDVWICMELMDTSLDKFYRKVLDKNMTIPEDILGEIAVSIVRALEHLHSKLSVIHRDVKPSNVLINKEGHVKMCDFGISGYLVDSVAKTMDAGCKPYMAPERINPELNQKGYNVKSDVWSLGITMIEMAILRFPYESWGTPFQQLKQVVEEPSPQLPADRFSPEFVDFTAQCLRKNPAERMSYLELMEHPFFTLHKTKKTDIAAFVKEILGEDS

[8] = test system: Leucine-rich repeat serine/threonine-protein kinase 2 (Homo sapiens), Q5S007 [G2019S]; conditions: at 10 µM
[9] = target: Proto-oncogene tyrosine-protein kinase Src (Homo sapiens, UniProt P12931); test: Selectivity interaction (KinomeScan (DiscoverX)) EUB0001619a SRC; conditions: at 1 µM
Chain of Proto-oncogene tyrosine-protein kinase Src (P12931 2-536 limits assumed): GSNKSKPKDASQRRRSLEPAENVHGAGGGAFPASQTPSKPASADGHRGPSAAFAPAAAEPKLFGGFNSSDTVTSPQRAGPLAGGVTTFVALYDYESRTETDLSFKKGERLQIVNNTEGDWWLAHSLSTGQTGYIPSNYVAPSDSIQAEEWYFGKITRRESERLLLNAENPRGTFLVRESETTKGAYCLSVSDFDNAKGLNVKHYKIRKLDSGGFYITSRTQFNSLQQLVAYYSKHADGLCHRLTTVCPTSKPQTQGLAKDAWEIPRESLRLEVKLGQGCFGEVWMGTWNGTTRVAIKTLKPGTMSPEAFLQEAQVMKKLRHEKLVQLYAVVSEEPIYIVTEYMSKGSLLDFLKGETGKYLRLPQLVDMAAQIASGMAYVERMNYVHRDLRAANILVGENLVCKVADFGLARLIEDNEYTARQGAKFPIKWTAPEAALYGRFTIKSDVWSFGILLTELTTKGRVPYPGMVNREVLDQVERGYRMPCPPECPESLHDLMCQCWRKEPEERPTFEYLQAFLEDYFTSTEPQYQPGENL

[10] = target: T3, Serine/threonine-protein kinase NLK (Homo sapiens) (UniProt Q9UBE8); test: Selectivity interaction (KinomeScan (DiscoverX)) EUB0001619a NLK; conditions: at 1 µM
T3 sequence (whole entry): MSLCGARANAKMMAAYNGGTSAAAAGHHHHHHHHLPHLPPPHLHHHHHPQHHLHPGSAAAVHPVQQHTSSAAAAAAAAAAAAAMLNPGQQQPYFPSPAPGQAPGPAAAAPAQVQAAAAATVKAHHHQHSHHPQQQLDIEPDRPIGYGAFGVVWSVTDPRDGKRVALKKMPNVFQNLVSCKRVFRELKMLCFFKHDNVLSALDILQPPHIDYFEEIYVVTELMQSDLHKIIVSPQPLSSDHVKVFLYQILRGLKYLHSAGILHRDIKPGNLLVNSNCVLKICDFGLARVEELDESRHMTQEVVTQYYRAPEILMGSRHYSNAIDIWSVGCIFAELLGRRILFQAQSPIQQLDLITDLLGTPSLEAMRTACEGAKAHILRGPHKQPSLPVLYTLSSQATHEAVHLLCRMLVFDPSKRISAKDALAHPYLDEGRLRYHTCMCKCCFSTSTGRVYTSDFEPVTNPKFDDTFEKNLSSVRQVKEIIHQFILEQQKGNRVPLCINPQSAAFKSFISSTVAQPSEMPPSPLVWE

% of inhibition [1]: -42%
Compound: Cn1cc(-n2cnc3c(NCc4nc5cc(Cl)c(Cl)cc5[nH]4)nc(N4CCOCC4)nc32)cn1

% of control [2]: 103%
Compound: CC(=O)c1cc(-c2ccccc2OCC2CC2)c2ncccn12

Compound: O=C(NOC[C@H](O)CO)c1ccc(F)c(F)c1Nc1ccc(I)cc1F
% of control [3]: 100%
% of control [4]: 52%

% of inhibition (Misshapen-like kinase 1; at 0.01 µM): -5.5%
% of inhibition (Misshapen-like kinase 1; at 0.04 µM): -1.7%
% of inhibition (Misshapen-like kinase 1; at 0.2 µM): -13.9%
% of inhibition (Misshapen-like kinase 1; at 1 µM): -2.7%
% of inhibition (Misshapen-like kinase 1; at 5 µM): 3.1%
% of inhibition ([5]; at 0.01 µM): 14.9%
% of inhibition ([5]; at 0.04 µM): 0%
% of inhibition ([5]; at 0.2 µM): -4.2%
% of inhibition ([5]; at 1 µM): 14.1%
% of inhibition ([5]; at 5 µM): 18.6%
Compound: CC[C@@H]1[C@H](F)C(=O)N[C@@H]1COc1nccc2cc(C(N)=O)c(OC)cc12 [ZIMLOVISERTIB]

Compound: CN(C)CCOc1ccc(-c2nc(-c3ccncc3)c(-c3ccc4c(c3)CC/C4=N\O)[nH]2)cc1
% of control [6]: 89%

Compound: C=CC(=O)Nc1cc(-n2c(=O)ccc3cnc4ccc(-c5ccc(NS(C)(=O)=O)cc5)cc4c32)ccc1C
% of control ([7]; at 1 µM): 100%
% of control ([7]; at 10 µM): 69%

Compound: Cc1cc([C@@H](C)Nc2ccccc2C(=O)O)c2nc(N3CCOCC3)cc(=O)n2c1 [AZD-6482]
% of control [8]: 100%

Compound: N#Cc1cccc(-c2c[nH]c3ncnc(N4CCOCC4)c23)c1
% of control [9]: 100%
% of control [10]: 85%
